# According to US20210315810A1, “COMPOSITION CONTAINING A MUCOLYTIC AGENT FOR THE TREATMENT OF MUCUS HYPERSECRETION AND A DEVICE FOR THE DOSING THEREOF” (SOFAR S.P.A., priority 2018, published 2021):
# Assay: Viscosity of cystic fibrosis mucus before and after incubation with Compositions 5-12 (Experimental Part II)
# Parameters: species or system human
# Details: mucus from patients, in vitro
structure (smiles),measurement,value
"CC(=O)N[C@@H](CS)C(=O)O [N-acetylcysteine, 2R-acetamido-3-sulfanylpropanoic acid]",Effect on viscosity of bronchial mucus (in words),effective at reducing the viscosity of bronchial mucus
